Reference: US11945799B2, “4-ethynylpyridine derivatives useful as GCN2 inhibitors” (IP2IPO INNOVATIONS LIMITED, priority 2020, dated 2024)
Like-named read-outs stand apart in the source and are kept apart here.

Tests used:
[1] = target: T1, full-length human GCN2 enzyme (Homo sapiens, UniProt Q9P2K8); experiment: GCN2 enzyme inhibition, LanthaScreen TR-FRET Kinase Activity assay (10 μM and 300 μM ATP); assay type: biochemical; settings: for IC50 / Ki: mean of replicate assays
T1 construct: purchased Carna Bioscience
Procedure: Biological and Pharmacokinetic Testing (a) GCN2 Enzyme Inhibition (10 μM and 300 μM Assays) Assay Protocol Overview:
The inhibitory activity of the Example compounds towards GCN2 enzyme was measured according to the description below, using a LanthaScreen TR-FRET (Time Resolved Fluorescence Resonance Energy Transfer) Kinase Activity assay distributed by ThermoFisher Scientific.
The full-length human GCN2 enzyme (UniProt accession number Q9P2K8) was used for all experiments (Carna Bioscience). The TR-FRET pair was composed of GFP-eIF2α and LanthaScreen Terbium-labeled anti-peIF2α (pSer52) Antibody.
Each example compound was dissolved in DMSO (0.15 mM) and dispensed in a 384-well plate by a D300 dispenser (Tecan) to a final concentration range 3000-0.13 nM using the logarithmic dilution mode in 2 replicates. Full inhibition (3000 nM commercial reference inhibitor) and DMSO vehicle control wells were also included on the same plate. All volumes were normalized to the final DMSO concentration of 2% of the reaction volume. Next, 5 μL of H2O was added to each well of the plate.
The enzyme mixture was prepared to obtain the following concentrations: • GCN2—30 nM • unloaded tRNA—0.3 nM • HEPES (pH=7.0)—100 mM • MgCl2—20 mM; MnCl2—10 mM
The mixture was applied by adding 5 μL to each well of the plate. The enzyme and the tested compound were then incubated at room temperature for 20 min while shaking at 450 rpm.
The substrate mixture was prepared to obtain the following concentrations: • GFP-eIF2α—240 nM • ATP—900 μM or 30 μM • HEPES (pH=7.0)—50 mM • MgCl2—10 mM • MnCl2—5 mM.
The mixture was applied by adding 5 μL to each well of the plate. Thus, the final concentrations of the 15 μL reaction mixture were as follows: • GCN2—10 nM • unloaded tRNA—0.1 nM • GFP-eIF2α—80 nM • ATP—300 μM or 10 μM • HEPES (1 M, pH=7.0)—50 mM • MgCl2—10 mM • MnCl2—5 mM.
The reaction was allowed to proceed at room temperature for 30 min while shaking at 450 rpm.
The antibody mixture was prepared to obtain the following concentrations: • Na2EDTA·2H2O—40 mM, in TR-FRET Dilution Buffer (Life technologies) • Tb—anti-peIF2a antibodies—4 nM.
The mixture was applied by adding 15 μL to each well. The plate was then incubated at room temperature for 60 min while shaking at 450 rpm and then read using Tecan Spark reader using specific TR-FRET filters.
The analysis of the GFP/Tb fluorescence results was conducted with GraphPad Prism to determine IC50 for each of the example compounds using 4-parameter model: log(inhibitor) vs. response-variable slope. IC50 and K, values were calculated in the usual way. The assay was carried out between 1 and 15 times. The results in the table below are the mean results from replicate assays for the compound in question, where applicable.

[2] = tested on: GCN2; settings: KINOMEscan, kinase GCN2; as reported in Nakamura et al (2018); cited from earlier work
[3] = Kinetic solubility in PBS buffer pH 7.4; assay type: physicochemical; settings: for solubility kinetic at 90 min: aqueous buffer, kinetic from dmso stock, PBS buffer pH 7.4, 90 minutes at room temperature, from 10 mM DMSO stock
Procedure: The kinetic solubility assay investigates a solubility based on the amount of material which remains in solution after a precipitation process. […] Assay is performed using Multiscreen Vacuum Manifold. A buffer of interest (in standard protocol PBS buffer at pH=7.4 is used) is spiked with stock solution and incubated for 90 minutes at room temperature. After that time solution/suspension is filtrated. The concentration of each compound is determined on the base of prepared calibration curve using UV-VIS spectrophotometry method. The assay is made in triplicate.
Buffer of interest: 0.24 g of KH2PO4, 1.44 g of Na2HPO4, 0.2 g of KCl and 8 g NaCl and dissolve in 1 L distilled H2O; adjust pH to appropriate value (pH 7.4). 190 μl of buffer of interest was dispensed into the wells of a 96 well filter plate, followed by 10 μl of compound (10 mM stock solution in DMSO). The plate was shaken gently at room temperature for 90 minutes at 500 rpm using a BioSan, Plate Shaker-Thermostat, PST-60 HL-4. After 90 minutes, the plate was filtered using a vacuum manifold and vacuum pump. 100 μl of each filtrate and 100 μl acetonitrile was transferred to a 96 well UV-visible light transparent plate and the UV-visible absorption spectrum was measured using a Biotek Synergy 2 multiplate reader from 250-500 nm, interval range 10 nm. The amount of test compound was calculated using a calibration curve prepared by serial dilution of compounds in equivalent amounts of DMSO and acetonitrile.

[4] = target: ZAK (Homo sapiens, UniProt Q9NYL2); settings: KINOMEscan, kinase ZAK; as reported in Nakamura et al (2018); cited from earlier work
[5] = target: T2, MAP2K5 (Homo sapiens, UniProt Q13163); settings: KINOMEscan, kinase MAP2K5; as reported in Nakamura et al (2018); cited from earlier work
T2 sequence (Q13163 1-448): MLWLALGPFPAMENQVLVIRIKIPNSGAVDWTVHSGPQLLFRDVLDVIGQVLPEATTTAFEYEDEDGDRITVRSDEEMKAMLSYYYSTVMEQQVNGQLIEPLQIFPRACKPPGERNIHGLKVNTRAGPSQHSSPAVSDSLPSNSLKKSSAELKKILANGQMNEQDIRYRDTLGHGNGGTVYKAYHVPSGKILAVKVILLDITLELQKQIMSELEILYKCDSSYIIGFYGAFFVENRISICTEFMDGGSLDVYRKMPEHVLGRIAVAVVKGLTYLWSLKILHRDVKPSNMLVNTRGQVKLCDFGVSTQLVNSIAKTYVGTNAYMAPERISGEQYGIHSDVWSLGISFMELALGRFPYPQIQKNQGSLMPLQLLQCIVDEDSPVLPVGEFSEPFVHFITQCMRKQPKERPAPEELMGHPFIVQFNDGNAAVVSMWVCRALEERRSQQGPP

[6] = target: STK10 (Homo sapiens, UniProt O94804); settings: KINOMEscan, kinase STK10; as reported in Nakamura et al (2018); cited from earlier work
[7] = target: off-target kinases; experiment: KINOMEscan kinase selectivity panel; assay type: binding, human; settings: kinases other than those at <0.5%
Procedure: (§1) Compounds were tested for activity against off-target kinases using the KINOMEscan™ screening platform, which employs a novel and proprietary active site-directed competition binding assay to quantitatively measure interactions between test compounds and hundreds of human kinases and disease relevant mutant variants.
(§2) For most assays, kinase-tagged T7 phage strains were grown in parallel in 24-well blocks in an E. coli host derived from the BL21 strain. E. coli were grown to log-phase and infected with T7 phage from a frozen stock (multiplicity of infection=0.4) and incubated with shaking at 32° C. until lysis (90-150 minutes). The lysates were centrifuged (6,000×g) and filtered (0.2 μm) to remove cell debris. The remaining kinases were produced in HEK-293 cells and subsequently tagged with DNA for qPCR detection. […] The liganded beads were blocked with excess biotin and washed with blocking buffer (SeaBlock (Pierce), 1% BSA, 0.05% Tween 20, 1 mM DTT) to remove unbound ligand and to reduce non-specific phage binding. […] Test compounds were prepared as 40× stocks in 100% DMSO and directly diluted into the assay. All reactions were performed in polypropylene 384-well plates in a final volume of 0.02 ml. […] The kinase concentration in the eluates was measured by qPCR.

[8] = tested on: GCN2; experiment: KINOMEscan competition binding assay, GCN2; set-up: species or system human; settings: kinase GCN2
Procedure: as §1, §2

[9] = target: T3, MEK5 (Homo sapiens, UniProt Q13163); experiment: KINOMEscan competition binding assay, MEK5; settings: kinase MEK5
T3 construct: host or cells: E. coli BL21-derived (T7 phage) or HEK-293
T3 sequence (Q13163 1-448): T2 sequence (Q13163 1-448)
Procedure: as §1, §2

[10] = read-out: GCN2 IC50 (nM) 10 uM ATP, 10 uM ATP
[11] = read-out: GCN2 IC50 (nM) 300 uM ATP, 300 uM ATP
[12] = read-out: GCN2 Ki (nM) 10 uM ATP, 10 uM ATP
[13] = read-out: GCN2 Ki (nM) 300 uM ATP, 300 uM ATP

T1 sequence (Q9P2K8 whole entry): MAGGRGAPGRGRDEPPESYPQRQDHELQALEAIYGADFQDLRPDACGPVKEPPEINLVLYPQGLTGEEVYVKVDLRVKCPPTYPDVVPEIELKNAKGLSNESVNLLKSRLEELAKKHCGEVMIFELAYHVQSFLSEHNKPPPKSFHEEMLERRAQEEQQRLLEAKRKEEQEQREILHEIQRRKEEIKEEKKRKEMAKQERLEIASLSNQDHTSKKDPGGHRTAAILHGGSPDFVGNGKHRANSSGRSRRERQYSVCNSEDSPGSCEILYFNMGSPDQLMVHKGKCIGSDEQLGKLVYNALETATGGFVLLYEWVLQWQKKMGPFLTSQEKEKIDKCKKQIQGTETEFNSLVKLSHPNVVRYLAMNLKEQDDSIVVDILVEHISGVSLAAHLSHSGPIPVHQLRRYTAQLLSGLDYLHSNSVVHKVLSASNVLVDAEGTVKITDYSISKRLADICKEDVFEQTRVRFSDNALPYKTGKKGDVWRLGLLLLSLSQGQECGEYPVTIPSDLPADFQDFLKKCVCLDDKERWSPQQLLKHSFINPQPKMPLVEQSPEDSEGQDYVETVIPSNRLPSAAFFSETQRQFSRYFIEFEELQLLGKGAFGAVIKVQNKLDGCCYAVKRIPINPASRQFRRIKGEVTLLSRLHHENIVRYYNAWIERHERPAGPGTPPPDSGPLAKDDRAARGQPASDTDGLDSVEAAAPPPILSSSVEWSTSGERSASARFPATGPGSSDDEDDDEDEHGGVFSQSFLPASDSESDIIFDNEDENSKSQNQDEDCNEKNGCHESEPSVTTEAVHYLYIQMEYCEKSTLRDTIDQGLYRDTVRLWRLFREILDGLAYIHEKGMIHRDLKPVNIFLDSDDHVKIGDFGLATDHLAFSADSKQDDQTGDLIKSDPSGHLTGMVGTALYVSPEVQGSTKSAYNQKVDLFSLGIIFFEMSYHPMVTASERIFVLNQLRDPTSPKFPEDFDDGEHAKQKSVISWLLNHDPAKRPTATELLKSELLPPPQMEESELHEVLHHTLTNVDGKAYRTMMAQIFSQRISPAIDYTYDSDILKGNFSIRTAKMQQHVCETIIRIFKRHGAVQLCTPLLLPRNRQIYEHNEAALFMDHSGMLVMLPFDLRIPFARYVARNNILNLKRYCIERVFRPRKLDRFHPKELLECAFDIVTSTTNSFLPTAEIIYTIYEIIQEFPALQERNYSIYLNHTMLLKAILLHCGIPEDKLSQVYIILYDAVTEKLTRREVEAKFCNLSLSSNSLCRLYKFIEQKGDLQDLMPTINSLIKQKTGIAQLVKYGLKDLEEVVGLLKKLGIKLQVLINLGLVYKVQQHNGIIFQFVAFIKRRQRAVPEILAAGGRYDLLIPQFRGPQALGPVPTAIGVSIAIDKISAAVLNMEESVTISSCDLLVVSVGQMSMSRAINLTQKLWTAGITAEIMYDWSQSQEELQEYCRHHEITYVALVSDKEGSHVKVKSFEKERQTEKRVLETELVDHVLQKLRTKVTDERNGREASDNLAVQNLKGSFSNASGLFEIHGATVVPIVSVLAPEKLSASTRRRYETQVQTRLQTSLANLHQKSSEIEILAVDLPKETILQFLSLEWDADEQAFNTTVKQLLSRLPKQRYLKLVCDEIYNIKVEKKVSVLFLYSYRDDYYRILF
STK10, sequence (O94804 whole entry): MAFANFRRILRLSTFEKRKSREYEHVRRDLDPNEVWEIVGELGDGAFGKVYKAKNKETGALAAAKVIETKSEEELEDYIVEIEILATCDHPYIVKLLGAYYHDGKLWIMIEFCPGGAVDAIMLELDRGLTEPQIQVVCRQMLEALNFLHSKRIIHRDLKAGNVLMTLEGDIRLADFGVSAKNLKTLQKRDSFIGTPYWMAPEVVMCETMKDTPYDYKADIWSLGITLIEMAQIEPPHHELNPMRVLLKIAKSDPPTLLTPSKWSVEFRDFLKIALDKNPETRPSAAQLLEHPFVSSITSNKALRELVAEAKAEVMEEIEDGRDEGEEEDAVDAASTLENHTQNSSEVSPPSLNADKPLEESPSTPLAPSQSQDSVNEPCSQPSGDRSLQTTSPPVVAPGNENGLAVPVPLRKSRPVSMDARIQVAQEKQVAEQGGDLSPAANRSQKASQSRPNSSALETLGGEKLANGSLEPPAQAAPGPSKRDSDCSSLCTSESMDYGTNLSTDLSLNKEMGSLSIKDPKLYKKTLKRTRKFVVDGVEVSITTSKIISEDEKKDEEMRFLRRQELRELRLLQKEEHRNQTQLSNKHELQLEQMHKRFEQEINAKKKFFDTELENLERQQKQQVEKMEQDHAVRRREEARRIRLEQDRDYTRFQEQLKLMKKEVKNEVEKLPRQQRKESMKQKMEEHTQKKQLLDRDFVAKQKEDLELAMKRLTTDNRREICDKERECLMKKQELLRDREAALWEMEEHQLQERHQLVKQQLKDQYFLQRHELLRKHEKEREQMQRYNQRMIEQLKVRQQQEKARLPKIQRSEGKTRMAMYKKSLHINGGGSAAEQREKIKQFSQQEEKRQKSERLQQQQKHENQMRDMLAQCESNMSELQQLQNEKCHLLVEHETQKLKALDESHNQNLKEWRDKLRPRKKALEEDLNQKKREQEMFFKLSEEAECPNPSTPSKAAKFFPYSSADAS
ZAK, sequence (Q9NYL2 whole entry): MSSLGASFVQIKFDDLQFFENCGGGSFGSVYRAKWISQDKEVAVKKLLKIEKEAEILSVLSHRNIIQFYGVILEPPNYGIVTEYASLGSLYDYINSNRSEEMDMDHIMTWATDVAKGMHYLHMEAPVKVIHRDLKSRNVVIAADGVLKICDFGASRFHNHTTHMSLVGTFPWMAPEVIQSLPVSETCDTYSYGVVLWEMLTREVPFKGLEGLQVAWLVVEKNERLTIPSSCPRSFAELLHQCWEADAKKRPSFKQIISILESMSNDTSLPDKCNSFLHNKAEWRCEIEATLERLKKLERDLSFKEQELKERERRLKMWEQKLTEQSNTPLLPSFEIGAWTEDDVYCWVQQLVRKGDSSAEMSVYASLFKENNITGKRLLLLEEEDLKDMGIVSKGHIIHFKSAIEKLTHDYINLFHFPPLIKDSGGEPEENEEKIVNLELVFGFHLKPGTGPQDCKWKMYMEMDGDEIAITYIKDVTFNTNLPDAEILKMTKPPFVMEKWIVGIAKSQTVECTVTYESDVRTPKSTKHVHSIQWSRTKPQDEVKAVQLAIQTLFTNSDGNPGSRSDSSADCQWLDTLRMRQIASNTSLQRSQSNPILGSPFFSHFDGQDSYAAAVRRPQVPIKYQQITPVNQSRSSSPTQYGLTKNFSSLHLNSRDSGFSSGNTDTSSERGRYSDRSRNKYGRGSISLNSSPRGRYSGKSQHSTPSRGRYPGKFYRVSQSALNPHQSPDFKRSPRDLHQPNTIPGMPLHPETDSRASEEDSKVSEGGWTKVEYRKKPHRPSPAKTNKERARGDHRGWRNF

| Structure (SMILES) | IC50 [1, 10] | IC50 [1, 11] | Ki [1, 12] | Ki [1, 13] | % Control [2] | solubility kinetic at 90 min [3] | % Control [4] | % Control [5] | % Control [6] | Kinases with % Control <5% [7] | GCN2 inhibitory activity (in words) [1] | % Control [8] | kinetic solubility (in words) [3] | % Control [9] |
| --- | --- | --- | --- | --- | --- | --- | --- | --- | --- | --- | --- | --- | --- | --- |
| COc1ncc(Cl)cc1S(=O)(=O)Nc1ccc(F)c(C#Cc2cnc(N)nc2)c1F [Comp Ex 1, reference compound] | 5.9 nM | 59.2 nM | 1.9 nM | 0.9 nM | <0.5% | 4.7 µg/mL | <5% | <5% | <5% |  |  |  |  |  |
| COc1ncc(Cl)cc1S(=O)(=O)Nc1nccc(C#Cc2cnc(N)nc2)c1F [Example 1, N-{4-[2-(2-aminopyrimidin-5-yl)ethynyl]-3-fluoropyridin-2-yl}-5-chloro-2-methoxypyridine-3-sulfonamide] | 7.2 nM | 103 nM | 2.3 nM | 1.6 nM |  | 218 µg/mL |  |  |  | None | strong | <0.5% | good |  |
| COc1ncc(Cl)cc1S(=O)(=O)Nc1nccc(C#Cc2cnc3[nH]ncc3c2)c1F [Example 3, 5-chloro-N-[3-fluoro-4-(2-{1H-pyrazolo[3,4-b]pyridin-5-yl}ethynyl)pyridin-2-yl]-2-methoxypyridine-3-sulfonamide] | 3.5 nM | 26.5 nM | 1.1 nM | 0.6 nM |  | 229 µg/mL |  |  |  |  | strong | <0.5% | good | <5% |
